Drawing on the OligoGym collection, this text covers target mRNA knockdown for 19 substances.

Values joined by “and” are separate entries in the source; they are usually repeats but may differ in a detail not shown here. Identical values can stand only once. HELM strings list units from the 5' end as sugar, base in round brackets, then linkage (d deoxyribose, r ribose, m 2'-O-methyl, p phosphodiester). Strings are as the collection lists them, not checked against the first reports. ss, as = sense and antisense strand; [lna] = locked nucleic acid (LNA); [hna] = hexitol nucleic acid; [s4r] = 4'-thioribose; [fl2r] = 2'-fluoro
Further: test system not given here.

For this data set the following is noted: siRNA.
“RNA1{r(A)p.r(U)p.r(C)p.r(U)p.r(G)p.r(A)p.r(A)p.r(G)p.r(A)p.r(A)p.r(G)p.r(G)p.r(A)p.r(G)p.r(A)p.r(A)p.r(A)p.r(A)p.r(A)p.[lna](T)p.[lna](T)}|RNA2{[lna](T)p.r(U)p.r(U)p.r(U)p.r(U)p.r(C)p.r(U)p.r(C)p.r(C)p.r(U)p.r(U)p.r(C)p.r(U)p.r(U)p.r(C)p.r(A)p.r(G)p.r(A)p.r(U)p.[lna](T)p.[lna](T)}$$$RNA1{StrandType:ss}|RNA2{StrandType:as}$”: the target mRNA knockdown is 52% and 63%.

With “RNA1{[s4r](C)p.[s4r](G)p.r(U)p.r(A)p.r(C)p.r(G)p.r(C)p.r(G)p.r(G)p.r(A)p.r(A)p.r(U)p.r(A)p.r(C)p.r(U)p.r(U)p.r(C)p.r(G)p.r(A)p.r(T)p.r(T)}|RNA2{[s4r](U)p.[s4r](C)p.r(G)p.r(A)p.r(A)p.r(G)p.r(U)p.r(A)p.r(U)p.r(U)p.r(C)p.r(C)p.r(G)p.r(C)p.r(G)p.r(U)p.r(A)p.[s4r](C)p.[s4r](G)p.r(T)p.r(T)}$$$RNA1{StrandType:ss}|RNA2{StrandType:as}$”, the target mRNA knockdown turned out to be 90.4%.

Regarding “RNA1{r(C)p.r(U)p.r(C)p.r(C)p.r(U)p.r(U)p.m(C)p.r(A)p.r(U)p.r(U)p.r(C)p.m(C)p.r(A)p.r(G)p.r(C)p.r(C)p.m(U)p.r(A)p.r(U)p.r(T)p.r(T)}|RNA2{r(A)p.m(U)p.r(A)p.r(G)p.r(G)p.r(C)p.m(U)p.r(G)p.r(G)p.r(A)p.r(A)p.m(U)p.r(G)p.r(A)p.r(A)p.r(G)p.r(G)p.r(A)p.r(G)p.r(T)p.r(T)}$$$RNA1{StrandType:ss}|RNA2{StrandType:as}$”, the target mRNA knockdown was 78%.

The substance “RNA1{[s4r](A)p.[s4r](A)p.r(A)p.r(C)p.r(A)p.r(U)p.r(G)p.r(C)p.r(A)p.r(G)p.r(A)p.r(A)p.r(A)p.r(A)p.r(U)p.r(G)p.r(C)p.r(U)p.r(G)p.r(T)p.r(T)}|RNA2{r(C)p.r(A)p.r(G)p.r(C)p.r(A)p.r(U)p.r(U)p.r(U)p.r(U)p.r(C)p.r(U)p.r(G)p.r(C)p.r(A)p.r(U)p.r(G)p.r(U)p.r(U)p.r(U)p.r(T)p.r(T)}$$$RNA1{StrandType:ss}|RNA2{StrandType:as}$” showed a target mRNA knockdown of 69.5%.

As to “RNA1{r(A)p.r(A)p.r(A)p.r(C)p.r(C)p.r(C)p.r(C)p.[fl2r](U)p.r(A)p.r(G)p.r(A)p.r(G)p.r(G)p.r(G)p.[fl2r](C)p.r(A)p.r(A)p.r(G)p.r(U)p.r(T)p.r(T)}|RNA2{r(A)p.r(C)p.r(U)p.r(U)p.r(G)p.r(C)p.r(C)p.r(C)p.r(U)p.r(C)p.r(U)p.r(A)p.r(G)p.r(G)p.r(G)p.r(G)p.r(U)p.r(U)p.r(U)p.r(T)p.r(T)}$$$RNA1{StrandType:ss}|RNA2{StrandType:as}$”, the target mRNA knockdown is 83%.

For “RNA1{r(G)p.r(G)p.m(U)p.r(A)p.r(G)p.r(G)p.r(G)p.r(U)p.m(U)p.r(G)p.r(A)p.r(A)p.r(G)p.r(A)p.r(G)p.r(A)p.r(C)p.r(U)p.r(U)p.r(T)p.r(T)}|RNA2{r(A)p.r(A)p.r(G)p.r(U)p.r(C)p.r(U)p.r(C)p.r(U)p.r(U)p.m(C)p.r(A)p.r(A)p.r(C)p.r(C)p.r(C)p.m(U)p.r(A)p.r(C)p.r(C)p.r(T)p.r(T)}$$$RNA1{StrandType:ss}|RNA2{StrandType:as}$”, the target mRNA knockdown was determined as 94%.

In the case of “RNA1{r(G)p.r(C)p.m(U)p.r(G)p.r(A)p.r(G)p.r(G)p.r(A)p.r(A)p.r(A)p.r(G)p.r(G)p.m(G)p.r(A)p.m(C)p.r(A)p.r(U)p.r(C)p.r(U)p.r(T)p.r(T)}|RNA2{r(A)p.r(G)p.r(A)p.m(U)p.r(G)p.r(U)p.r(C)p.r(C)p.r(C)p.r(U)p.r(U)p.r(U)p.r(C)p.r(C)p.r(U)p.m(C)p.r(A)p.r(G)p.r(C)p.r(T)p.r(T)}$$$RNA1{StrandType:ss}|RNA2{StrandType:as}$”, the target mRNA knockdown turned out to be 76%.

The substance “RNA1{r(G)p.r(G)p.r(C)p.r(C)p.r(U)p.r(U)p.r(U)p.r(C)p.r(A)p.r(C)p.r(U)p.r(A)p.r(C)p.r(U)p.r(C)p.r(C)p.r(U)p.r(A)p.r(C)p.d(T)p.d(T)}|RNA2{r(G)p.r(U)p.r(A)p.r(G)p.r(G)p.r(A)p.r(G)p.r(U)p.r(A)p.r(G)p.r(U)p.r(G)p.r(A)p.r(A)p.r(A)p.r(G)p.r(G)p.r(C)p.r(C)p.d(T)p.d(T)}$$$RNA1{StrandType:ss}|RNA2{StrandType:as}$” gave a target mRNA knockdown of 36%.

On to “RNA1{r(G)p.r(A)p.r(U)p.r(U)p.r(C)p.m(C)p.r(A)p.r(A)p.r(A)p.r(C)p.r(C)p.r(C)p.r(C)p.r(A)p.r(C)p.m(U)p.r(A)p.r(U)p.r(C)p.r(T)p.r(T)}|RNA2{r(G)p.r(A)p.r(U)p.r(A)p.r(G)p.r(U)p.r(G)p.r(G)p.r(G)p.r(G)p.r(U)p.r(U)p.r(U)p.r(G)p.r(G)p.r(A)p.r(A)p.r(U)p.r(C)p.r(T)p.r(T)}$$$RNA1{StrandType:ss}|RNA2{StrandType:as}$”, for which the target mRNA knockdown turned out to be 67%.

Regarding “RNA1{[hna](G)p.[hna](A)p.[hna](C)p.r(G)p.r(U)p.r(A)p.r(A)p.r(A)p.r(C)p.r(G)p.r(G)p.r(C)p.r(C)p.r(A)p.r(C)p.r(A)p.r(A)p.[hna](G)p.[hna](U)p.[hna](U)p.d(T)}|RNA2{r(A)p.[hna](C)p.r(U)p.r(U)p.r(G)p.r(U)p.r(G)p.r(G)p.[hna](C)p.r(C)p.r(G)p.r(U)p.r(U)p.r(U)p.r(A)p.r(C)p.r(G)p.[hna](U)p.[hna](C)p.[hna](G)p.d(T)}$$$RNA1{StrandType:ss}|RNA2{StrandType:as}$”, the target mRNA knockdown was 35.8%.

Consider “RNA1{r(A)p.r(C)p.r(G)p.r(U)p.m(C)p.r(A)p.r(C)p.r(C)p.r(G)p.r(A)p.r(G)p.r(G)p.r(A)p.r(G)p.r(A)p.r(A)p.r(G)p.r(U)p.r(A)p.r(T)p.r(T)}|RNA2{m(U)p.r(A)p.r(C)p.r(U)p.r(U)p.r(C)p.r(U)p.r(C)p.r(C)p.r(U)p.r(C)p.r(G)p.r(G)p.m(U)p.r(G)p.r(A)p.r(C)p.r(G)p.r(U)p.r(T)p.r(T)}$$$RNA1{StrandType:ss}|RNA2{StrandType:as}$”, for which the target mRNA knockdown is 80%.

Take “RNA1{[fl2r](A)p.r(C)p.[fl2r](A)p.r(U)p.[fl2r](A)p.r(G)p.[fl2r](A)p.r(G)p.[fl2r](G)p.r(A)p.[fl2r](A)p.r(G)p.r(A)p.r(C)p.r(G)p.r(C)p.r(G)p.r(G)p.r(A)p.r(T)p.r(T)}|RNA2{[fl2r](U)p.r(C)p.[fl2r](C)p.r(G)p.[fl2r](C)p.r(G)p.[fl2r](U)p.r(C)p.[fl2r](U)p.r(U)p.[fl2r](C)p.r(C)p.[fl2r](U)p.r(C)p.[fl2r](U)p.r(A)p.[fl2r](U)p.r(G)p.r(U)p.r(T)p.r(T)}$$$RNA1{StrandType:ss}|RNA2{StrandType:as}$”: the target mRNA knockdown came out at 57%.

In turn, “RNA1{[fl2r](A)p.r(G)p.[fl2r](A)p.r(A)p.[fl2r](G)p.r(U)p.[fl2r](A)p.r(C)p.[fl2r](C)p.r(A)p.[fl2r](G)p.r(G)p.[fl2r](A)p.r(G)p.[fl2r](G)p.r(C)p.[fl2r](G)p.r(U)p.[fl2r](U)p.r(T)p.r(T)}|RNA2{r(A)p.r(A)p.r(C)p.[fl2r](G)p.r(C)p.r(C)p.r(U)p.r(C)p.r(C)p.r(U)p.[fl2r](G)p.[fl2r](G)p.r(U)p.r(A)p.r(C)p.r(U)p.r(U)p.r(C)p.r(U)p.r(T)p.r(T)}$$$RNA1{StrandType:ss}|RNA2{StrandType:as}$” had a target mRNA knockdown of 39%.

“RNA1{r(G)p.m(C)p.r(A)p.r(G)p.r(C)p.r(A)p.r(C)p.r(G)p.r(A)p.r(C)p.r(U)p.r(U)p.r(C)p.r(U)p.r(U)p.r(C)p.r(A)p.r(A)p.r(G)p.r(U)p.r(U)}|RNA2{r(U)p.[fl2r](U)p.r(C)p.r(G)p.r(U)p.r(C)p.r(G)p.r(U)p.r(G)p.r(C)p.r(U)p.r(G)p.r(A)p.r(A)p.r(G)p.r(A)p.r(A)p.r(G)p.r(U)p.r(U)p.r(C)}$$$RNA1{StrandType:ss}|RNA2{StrandType:as}$” yielded a target mRNA knockdown of 77.2%.

Regarding “RNA1{r(C)p.[fl2r](C)p.r(A)p.r(G)p.r(C)p.r(G)p.r(A)p.r(G)p.r(C)p.r(C)p.[fl2r](C)p.r(A)p.r(A)p.r(A)p.r(A)p.r(G)p.r(A)p.r(A)p.r(A)p.r(T)p.r(T)}|RNA2{r(U)p.r(U)p.r(U)p.r(C)p.r(U)p.r(U)p.r(U)p.r(U)p.r(G)p.r(G)p.r(G)p.r(C)p.r(U)p.r(C)p.r(G)p.r(C)p.r(U)p.r(G)p.r(G)p.r(T)p.r(T)}$$$RNA1{StrandType:ss}|RNA2{StrandType:as}$”, the target mRNA knockdown came out at 85%.

Consider “RNA1{r(U)p.m(U)p.r(A)p.r(A)p.r(G)p.r(G)p.r(A)p.r(G)p.r(A)p.r(A)p.r(G)p.r(C)p.m(U)p.m(G)p.r(A)p.r(C)p.r(G)p.r(G)p.r(C)p.r(T)p.r(T)}|RNA2{r(G)p.r(C)p.r(C)p.r(G)p.r(U)p.m(C)p.r(A)p.r(G)p.r(C)p.r(U)p.r(U)p.r(C)p.r(U)p.r(C)p.r(C)p.r(U)p.m(U)p.r(A)p.r(A)p.r(T)p.r(T)}$$$RNA1{StrandType:ss}|RNA2{StrandType:as}$”, for which the target mRNA knockdown stood at 82%.

As to “RNA1{r(U)p.m(U)p.r(A)p.m(C)p.r(A)p.r(A)p.r(A)p.r(G)p.r(G)p.m(A)p.r(U)p.r(C)p.r(U)p.r(C)p.r(C)p.r(U)p.r(C)p.r(C)p.r(C)p.r(T)p.r(T)}|RNA2{r(G)p.r(G)p.r(G)p.r(A)p.r(G)p.r(G)p.r(A)p.r(G)p.m(A)p.r(U)p.r(C)p.r(C)p.r(U)p.r(U)p.m(U)p.r(G)p.m(U)p.r(A)p.r(A)p.r(T)p.r(T)}$$$RNA1{StrandType:ss}|RNA2{StrandType:as}$”, the target mRNA knockdown came out at 78%.

“RNA1{r(U)p.r(C)p.r(C)p.r(U)p.r(A)p.r(C)p.r(A)p.r(G)p.r(C)p.r(A)p.r(C)p.r(A)p.r(A)p.r(C)p.r(A)p.r(A)p.r(A)p.r(U)p.r(G)p.d(U)p.d(G)}|RNA2{r(C)p.r(A)p.r(U)p.r(U)p.r(U)p.r(G)p.r(U)p.r(U)p.r(G)p.r(U)p.r(G)p.r(C)p.r(U)p.r(G)p.r(U)p.r(A)p.r(G)p.r(G)p.r(A)p.d(T)p.d(T)}$$$RNA1{StrandType:ss}|RNA2{StrandType:as}$” had a target mRNA knockdown of 54%.

“RNA1{r(G)p.r(A)p.r(U)p.r(U)p.r(C)p.r(C)p.r(A)p.r(A)p.r(A)p.r(C)p.r(C)p.r(C)p.r(C)p.r(A)p.r(C)p.m(U)p.r(A)p.r(U)p.r(C)p.r(T)p.r(T)}|RNA2{r(G)p.r(A)p.r(U)p.m(A)p.r(G)p.r(U)p.r(G)p.r(G)p.r(G)p.r(G)p.r(U)p.r(U)p.r(U)p.r(G)p.r(G)p.r(A)p.r(A)p.r(U)p.r(C)p.r(T)p.r(T)}$$$RNA1{StrandType:ss}|RNA2{StrandType:as}$”: the target mRNA knockdown turned out to be 69%.
